Test [1] deals with wildtype (Col-0). The test is described as follows: Lateral root number with exogenous auxin, wildtype. The test is classed as in vivo, Arabidopsis. Conditions: for lateral root number: Col-0, mean ± SE. As for the experimental part:
(§1) FIG. 4. Reduced AtMyb77 expression reduces lateral root growth sensitivity to exogenous auxin. (A) atmyb77-1 T-DNA insertion line and wild-type Arabidopsis Col-0 grown on MS plates with no added auxin have the same number and length of lateral roots. (B) atmyb77-1 has more lateral roots than wildtype Col-0 with 100 nM IAA and (C) 80 nM 2, 4-D. (D) Mean lateral root numbers per primary root under control conditions and with 100 nM IAA and 80 nM 2, 4-D (n=100±SE).
(§2) The effects of exogenous auxin on lateral root growth under control conditions were also tested in wild-type and atmyb77-1 plants. Wildtype Col-0 and atmyb77-1 plants had the same number of lateral roots and the same primary root length under control conditions (FIGS. 4A and D; Table I). […] Primary root length was the same between lines for each treatment.

The test system of test [2] is atmyb77 T-DNA insertion lines (KO). The test is described as follows: Lateral root number with exogenous auxin, atmyb77 T-DNA insertion line. The test is classed as in vivo, Arabidopsis. To be noted: mean ± SE. How it is done: as §1, §2
The subject of test [3] is wildtype Col-0 roots. The test is described as follows: Northern blot of auxin regulated genes in roots, wildtype. The test is classed as in vivo, Arabidopsis. To be noted: 20 μM IAA. How it is done:
(§3) FIG. 6. Northern blots of Arabidopsis wildtype Col-0 and T-DNA insertion line atmyb77-1 roots grown in hydroponic conditions for 7 weeks and treated with 20 μM IAA for 0, 6, 30 and 54 hours. Northern blots were probed with 3′ probes from auxin regulated and related genes. Ribosomal RNA loading control shown at bottom.
(§4) Plants were initially grown in nutrient solutions using a rock wool system (Gibeaut et al. 1997) for six weeks at 22° C. with 8 h daylight at 200 μmol.m-2.s-1. Three weeks after germination, plants were transferred to hydroponic tanks containing nutrient medium (Shin et al. 2005) with aeration. Plants were then exposed to a final concentration of 20 μM of IAA (Sigma-Aldrich, St.Louis, Mo.) in the nutrient solutions. After 6 h, 30 h and 54 h roots were harvested. For probes, cDNA fragments were amplified from Arabidopsis cDNA by PCR using primers for the indicated genes as follows: […]
(§5) The amplified cDNAs were labeled with α-^32P-dCTP (Amersham) and Northern blot analyses were performed as described (Shin et al. 2005).

Test [4] relates to atmyb77-1 T-DNA insertion line roots. The test is described as follows: Northern blot of auxin regulated genes in roots, atmyb77-1. The test is classed as in vivo, Arabidopsis. Conditions: 20 μM IAA; 6, 30, 54 h; atmyb77-1 roots. How it is done:
as §3, §4, §5

For test [5], the system named is AtMyb77 promoter::GUS plants. The test is described as follows: AtMyb77 promoter::GUS reporter expression in roots after auxin. The test is classed as in vivo, Arabidopsis. To be noted: 100 nM IAA, lateral roots, one day. As for the experimental part:
To localize GUS activity, plants were stained with 1 mM X-Gluc solution 4 days after germination (DAG) (Vicente-Agullo et al. 2004) and were de-stained (Malamy and Benfey 1997). The pictures were taken using a Nikon SMZ1500 dissecting microscope (Nikon). Plants were transferred 3-DAG to full nutrient (1.75 mM KCl) or to low K plates (10 μM KCl), and then grown for 7 days before staining. For auxin treatment, plants were transferred 6-DAG to full nutrient plates (no auxin), and to plates containing 100 nM of IAA, or 80 nM of 2, 4-D, and then grown for one day before staining. Incubation time was 60 minutes and protein concentration was calculated with the CB-X kit (GenoTech).
Expression of AtMyb77-promoter driven GUS expression was detected in roots (FIG. 3) and leaves of seedlings. In roots the expression was localized to the inner cell layers of the primary root including the stele (FIGS. 3A and B). At the tip of primary roots expression of GUS was also seen in the root cap cells (FIG. 3A). Throughout the root expression was visible in the vascular tissue. An interesting pattern of expression was observed during the development of lateral roots. Initially when the lateral roots emerge, the reporter gene expression was observed above and below the emerging lateral root primordia in the cortical cells (FIG. 3C). […]

The test system of test [6] is MYBcore element. The test is described as follows: Gel mobility shift assay, MYBcore. Conditions: 100 ng AtMyb77::His, 3x repeat labeled oligo. The test is classed as binding, Arabidopsis. As for the experimental part:
(§6) An AtMyb77 cDNA fragment was amplified by PCR and cloned into the Ndel and SacI sites of the pET28 vector (Novagen, Madison, Wis., USA). The primer set used for the amplification was 5′-[…]-3′ (SEQ ID NO:37) and 5′-[…]-3′ (SEQ ID NO:38). The resulting in-frame fusion was transformed into Escherichia coli strain BL21 (DE3). Overexpression of AtMyb77::His was induced by 0.5 mM isopropyl-β-D-thiogalactoside at 20° C. for 4 h. Bacteria were pelleted after the induction period, suspended in lysis buffer (50 mM NaH2PO4H2O, 300 mM NaCl, 10 mM Imidazole) and subjected to sonication on ice for 1 min. Bacterial lysates were then centrifuged. The His tagged fusion protein was recovered by affinity chromatography on Nickel-NTA (Sigma-Aldrich, St. Louis, Mo., USA) and the purified protein was used for gel mobility shift assays.
(§7) Both strands of the MRE element ([…]; SEQ ID NO:39) (Hoerena et al. 1998), the MYBcore element ([…]; SEQ ID NO:40) (Larsen 2003), mutated MRE (mMRE) element ([…]; SEQ ID NO:41), mutated MYBcore (mMYBcore) element ([…]; SEQ ID NO:42) and GCC box ([…]; SEQ ID NO:43; Fujimotoa et al., 2000) were synthesized and were end-labeled with […] (Amersham, Pittsburgh, Pa., USA) by T4 polynucleotide kinase (New England Biolabs, Beverly, Mass., USA) at 37° C. for 1 h. […]

Test [7] deals with GCC box. The test is described as follows: Gel mobility shift assay, GCC box. The test is classed as binding. Conditions: band shift. How it is done:
as §6, §7

Test [8] has as its system mutated MYBcore (mMYBcore) element. The test is described as follows: Gel mobility shift assay, mutated MYBcore. To be noted: band shift. The test is classed as binding. As for the experimental part: as §6, §7
In test [9] the test system is MRE element. The test is described as follows: Gel mobility shift assay, MRE. The test is classed as binding, Arabidopsis. Conditions: 100 ng AtMyb77::His, 3x repeat labeled oligo. As for the experimental part:
as §6, §7

Test [10] deals with mutated MRE (mMRE) element. The test is described as follows: Gel mobility shift assay, mutated MRE. The test is classed as binding. Conditions: band shift. As for the experimental part:
as §6, §7

On to `O=C(O)COc1ccc(Cl)cc1Cl` [2,4,-D, 2,4-dichlorophenoxyacetic acid], for which the values for the lateral root number in [1] (80 nM 2,4-D) and in test [2] (80 nM 2,4-D) were 7.41 ± 0.20 days and 8.80 ± 0.19b, respectively. Besides, in test [1] (seedlings treated with 80 nM 2,4-D), the “lateral root formation, wildtype compared to atmyb77-1” value is “reduced significantly more in the wildtype”.
As for `O=C(O)Cc1c[nH]c2ccccc12` [IAA, indoleacetic acid], in test [3] (6, 30, 54 h vs 0 h, wild-type roots), the “expression of IAA19, IAA1, IAA28, AUX1, SAUR-AC1, AXR1, ARF7, AtMyb77 and Tir1” value is given as “Clear induction of expression”. In test [3] (after 54 hours, wildtype roots), the PIN1 expression result is on record as “not induced”. The lateral root number in test [1] (100 nM IAA) is 10.05 ± 0.55b; in [2] (100 nM IAA), 13.57 ± 0.38c. Moreover, the “lateral root formation, wildtype compared to atmyb77-1” value in test [1] (seedlings treated with 100 nM IAA) is “reduced significantly more in the wildtype”. In addition, the “induction of auxin regulated genes” value in test [4] was “greatly attenuated or abolished”. For the same compound, the “AtMyb77 promoter driven GUS expression” value in test [5] was “increase in the expression”.
Regarding “AtMyb77: HIS tagged AtMyb77 R2R3 Myb transcription factor protein (SEQ ID NO:10) purified from E. coli”, the “binding to MYBcore sequence (band shift)” value in test [6] is recorded as “bound”. In addition, in test [7], the “binding to ethylene binding element (GCC)” value was “no interaction”. Also, the “binding to MYBcore with single nucleotide change” value in test [8] was “eliminated the interaction and binding”. Also, in test [9], the “binding to MRE sequence (band shift)” value is recorded as “bound”. In addition, in test [10], the “binding to MRE with single nucleotide change” value was “eliminated the interaction and binding”.

The values are drawn from patent US20080196124A1, “Plant Growth Hormone Regulated Transcription Factors and Promoters Thereof” (DONALD DANFORTH PLANT SCIENCE CENTER, priority 2006, published 2008).
